Results published in publication PMC12117711, “The contribution of cyclic imide stereoisomers on cereblon-dependent activity†” (Chemical Science, 2025).
Values joined by “and” are separate entries in the source; they are usually repeats but may differ in a detail not shown here. Identical values can stand only once. Like-named read-outs stand apart in the source and are kept apart here. Blank lines part the entries; values can stand above or below the molecule they belong to. Non-standard residues stand in square brackets, D forms with d. Residues, ends and D or L forms follow the SMILES beside them. No end group written: not given here. *: point of attachment. epicN = C-terminal cyclic asparagine (aspartimide), (R)-epimer, epimer of cN, O=C1C[C@@H](N*)C(=O)N1; Aspartimide = O=C1C[C@H](N*)C(=O)N1; Fmoc = O=C(OCC1c2ccccc2-c2ccccc21)*; X3 = O=C1CC[C@@H](N*)C(=O)N1; X1 = O=C1C[C@@H](N*)C(=O)N1; X2 = O=C1CC[C@H](N*)C(=O)N1

Tests used:
His6-CRBN/DDB1 complex [1] = biological target: His6-CRBN/DDB1 complex (UniProt Q96SW2)
His6-CRBN/DDB1 = His6-CRBN/DDB1 (Homo sapiens, UniProt Q96SW2); assay: TR-FRET ligand displacement assay (Thal-FITC tracer) with His6-CRBN/DDB1; conditions: for IC50 / pIC50 (M): Thalidomide-FITC tracer 50 nM
[2] = Time-course study of racemization of lenalidomide, photo-lenalidomide and deuterated analogs in RPMI medium; assay type: physicochemical; conditions: RPMI media, 37 °C, read-out: t50%ee (racemization half-life) (converted)
Protocol: Time-course Study of Racemization of Lenalidomide and Photo-lenalidomide in RPMI Medium To a 12-well plate, 25 μL of the indicated compound (4 mM stock solution in methanol) was added and methanol was air-dried. 1 mL of RPMI medium was added to each well containing the compound and the plate was incubated at 37 °C, 5% CO2. At the indicated time point, RPMI medium containing the compound was collected in a 5-mL Eppendorf tube, and 4 mL of HPLC-grade ethyl acetate was added to each tube. The tube was shaken for 2 min to extract the compounds into ethyl acetate. After two layers were separated, 3 mL was taken from the organic layer and filtered through sodium sulfate to remove residual water. To the same 5-mL Eppendorf tube, 3 mL of HPLC-grade ethyl acetate was added to repeat the extraction step.
The taken organic layers were combined and concentrated in vacuo to dryness. The sample was resuspended in HPLC grade isopropanol and analyzed with Waters Prep 150 LC System equipped with a chiral column with conditions indicated in the synthetic procedure.
The experimental data obtained were fitted to the following rate equation for racemization:1 […]
Where Y represents the ratio of the other enantiomer formed via racemization with constraints 2 of Top = 1 (100% conversion) and Bottom = 0 (0% conversion), Krac is the rate constant for the racemization, and t is incubation time. For the sake of symmetry, rate constants are the […]
In the analysis of the above curve fitting model, parameter estimation for Krac was carried out using nonlinear least squares regression, employing the “curve_fit” function from the SciPy library in Python. This approach yielded an estimated value for Krac. To ascertain the precision of this estimation and to quantify the associated uncertainty, the standard error of Krac was calculated based on the diagonal elements of the covariance matrix returned by the curve fitting procedure. Subsequently, to construct a 95% confidence interval for the extrapolated racemization curves, the t-distribution was employed, considering the degrees of freedom (the number of data points minus the number of fitted parameters). The critical t-value for a 95% confidence level was determined by using the “t.ppf” function from the SciPy library in Python, and the confidence interval for Krac was then derived as the following equation: […]
Where tcritical is the critical t-value for a 95% confidence level and SE(Krac) is the standard error […]
The upper and lower bounds of this interval were further utilized to generate the corresponding confidence bounds for the curve, offering a visual representation of the uncertainty inherent in […]

[3] = biological target: T1, GSPT1-GFP in HEK293T cells (Homo sapiens, UniProt P15170+Q96SW2); assay: Degradation assay by flow cytometry, GSPT1-GFP; assay type: cell-based
T1 construct: expressed in transfected cells
Excerpt: μg/mL), and 10% (v/v) FBS. […]
Degradation assay by flow cytometry
resuspension in DMEM +/– without phenol red. For IKZF1 degradation assay, propidium
equipped with a high throughput sampler.
using the BD FACSDiva software v9.1. For each experimental condition, the arithmetic mean
comparing compound treatment to DMSO control. […]
The same analysis was also applied to the (S)-
dependent activity, we adjusted the dose-response curves accordingly. Because dose-
within the error margins of the original curve.
squares F-test. This analysis determined whether there was a statistically significant
derived (S)-enantiomer. […]

His6-CRBN/DDB1 complex [4] = biological target: T2, His6-CRBN/DDB1 complex (UniProt Q96SW2 1-442; Q16531 1-1140); assay: AlphaScreen or HTRF; competitive TR-FRET ligand displacement; peptide titrated against recombinant His6-CRBN/DDB1 (2.5 nM) with the tracer Thalidomide-FITC (50 nM); KD from IC50 by the correction factor 1.426 (tracer KD 2-site 117.3 nM); conditions: both partners purified
T2 construct: cereblon (CRBN), E3 ligase substrate adapter; DDB1, in complex with His6-CRBN; Column 'Protein' of S0003 says only 'CRBN'; the text and legends name His6-CRBN/DDB1 for this TR-FRET assay; also called cereblon; source: recombinant

[5] = IC50 (M), Protein CRBN, protein […]
[6] = KD (M), Protein CRBN, from IC50 with Correction Factor 1.43
[7] = KD (nM), Protein CRBN, from IC50 with Correction Factor 1.43
[8] = IC50 (nM), Protein CRBN, protein […]
[9] = KD, competitive TR-FRET, His6-CRBN/DDB1
[10] = Protein CRBN, from IC50 with Correction Factor 1.43
[11] = HEK293T, 3 h, flow cytometry, read-out: DC50

Molecule: GFP-FcN
- in vitro monoubiquitination with K0-ubiquitin mediated by the CRL4^CRBN complex, fold over methylated GFP-FcQ (GFP-FcQMe) (His6-CRBN/DDB1 complex [1]): 7.1 fold

Molecule: O=C(CNC(=O)CNC(=O)OCC1c2ccccc2-c2ccccc21)NCC(=O)N[C@@H](Cc1ccccc1)C(=O)N[C@H]1CCC(=O)NC1=O [Fmoc-GGGFcQ] (Fmoc-GGGF-X2)
- IC50 (His6-CRBN/DDB1; [5]): 1.28e-07 M
- Kd (His6-CRBN/DDB1; [6]): 8.94e-08 M

Molecule: Nc1cccc2c1CN([C@@H]1CCC(=O)NC1=O)C2=O [(R)-lenalidomide]
- half-life at 100 µM [2]: 4.3 h

Molecule: C[C@H](NC(=O)CNC(=O)CNC(=O)CN)C(=O)N[C@H]1CC(=O)NC1=O [GGGAcN] (H-GGGA-Aspartimide)
- IC50 (His6-CRBN/DDB1; [5]): 3.44e-07 M
- Kd (His6-CRBN/DDB1; [6]): 2.42e-07 M
- Kd (His6-CRBN/DDB1; [7]): 2.42e-07 M

Molecule: GFP-FepicN
- in vitro monoubiquitination with K0-ubiquitin mediated by the CRL4^CRBN complex, fold over methylated GFP-FcQ (GFP-FcQMe); did not reach statistical significance (His6-CRBN/DDB1 complex [1]): 1.3 fold

Molecule: O=C(CNC(=O)CNC(=O)OCC1c2ccccc2-c2ccccc21)NCC(=O)N[C@@H](Cc1ccccc1)C(=O)N[C@@H]1CC(=O)NC1=O [Fmoc-GGGFepicN] (Fmoc-GGGF-X1)
- IC50 (His6-CRBN/DDB1; [8]): 4.08e-06 M
- Kd (His6-CRBN/DDB1; [6]): 2.86e-06 M
- Kd (His6-CRBN/DDB1; [9]): 2.86e-06 M and 2.87e-06 M
- IC50 (His6-CRBN/DDB1; pIC50 (M), Protein CRBN): 4.07e-06 M
- Kd (His6-CRBN/DDB1; pKD (M), Protein CRBN, from IC50 with Correction Factor 1.43): 2.88e-06 M

Molecule: O=C(CNC(=O)CNC(=O)OCC1c2ccccc2-c2ccccc21)NCC(=O)N[C@@H](Cc1ccccc1)C(=O)N[C@@H]1CCC(=O)NC1=O [Fmoc-GGGFepicQ] (Fmoc-GGGF-X3)
- IC50 (His6-CRBN/DDB1; [5]): 7.69e-07 M
- Kd (His6-CRBN/DDB1; [6]): 5.39e-07 M

Molecule: Nc1cccc2c1CN([C@H]1CCC(=O)NC1=O)C2=O [(S)-lenalidomide]
- half-life at 100 µM [2]: 4.2 h

Molecule: O=C(CNC(=O)CNC(=O)OCC1c2ccccc2-c2ccccc21)NCC(=O)N[C@@H](Cc1ccccc1)C(=O)N[C@H]1CC(=O)NC1=O [Fmoc-GGGFcN] (Fmoc-GGGF-Aspartimide)
- Kd (His6-CRBN/DDB1; [6]): 3.67e-08 M

Molecule: GFP-FcQ
- in vitro monoubiquitination with K0-ubiquitin mediated by the CRL4^CRBN complex, fold over methylated GFP-FcQ (GFP-FcQMe) (His6-CRBN/DDB1 complex [1]): 4.8 fold

Molecule: [2H]C1([2H])C[C@@]([2H])(N2Cc3cc(CNC(=O)Nc4ccc(C)c(Cl)c4)ccc3C2=O)C(=O)NC1=O [(R)-CC885-d3]
- DC50 [3, 11]: 25 nM
- Kd (His6-CRBN/DDB1; [9]): 4.01e-07 M

Molecule: [2H]C1([2H])C[C@]([2H])(N2Cc3cc(CNC(=O)Nc4ccc(C)c(Cl)c4)ccc3C2=O)C(=O)NC1=O [(S)-CC885-d3]
- DC50 ([3]; (S) in the (S)-sample, read-out: predicted DC50 of the (S)-stereoisomer, adjusted for (S)-stereoisomer): 1.2 ± 0.3 nM
- DC50 [3, 11]: ≤ 2 nM
- Kd (His6-CRBN/DDB1; [9]): ≤ 3e-09 M
- Kd (His6-CRBN/DDB1; predicted KD of the (S)-stereoisomer, ligand displacement assay adjusted for (S)-stereoisomer, (S)-stereoisomer in the (S)-sample, corrected for racemization): 3.2e-09 ± 1e-10 M

Molecule: GFP-FepicQ
- in vitro monoubiquitination with K0-ubiquitin mediated by the CRL4^CRBN complex, fold over methylated GFP-FcQ (GFP-FcQMe) (His6-CRBN/DDB1 complex [1]): 2.4 fold

B1: Fmoc-GGGFcN (peptide)
peptide: Fmoc-GGGF[Aspartimide]
SMILES: O=C(CNC(=O)CNC(=O)OCC1c2ccccc2-c2ccccc21)NCC(=O)N[C@@H](Cc1ccccc1)C(=O)N[C@H]1CC(=O)NC1=O
notes: pentapeptide; the C-terminal N is cyclised to the C-terminal cyclic imide (aspartimide); source: synthetic peptide
- IC50 (His6-CRBN/DDB1 complex [4]): 52.4 nM

B2: GGGAcN (peptide)
peptide: GGGA[Aspartimide]
notes: pentapeptide; the C-terminal N is cyclised to the C-terminal cyclic imide (aspartimide); The sheet prints no Fmoc for this peptide; also called pentapeptide bearing AcN; source: synthetic peptide
- Kd (His6-CRBN/DDB1 complex [4]): 242 nM

Now from value to molecule:

- pIC50 (M) (His6-CRBN/DDB1; Protein CRBN): 6.86 M
- IC50 (His6-CRBN/DDB1; Protein CRBN, protein […]): 1.38e-07 M
- Kd (His6-CRBN/DDB1; [10]): 9.65e-08 M and 9.7e-08 M
- pKD (M) (His6-CRBN/DDB1; [10]): 7.02 M
Molecule: Cc1sc2c(c1C)C(c1ccc(Cl)cc1)=N[C@@H](CC(=O)NCCCCCCCCC(=O)N[C@@H](Cc1ccccc1)C(=O)N[C@H]1CCC(=O)NC1=O)c1nnc(C)n1-2 [JQ1-FcQ]

- pIC50 (M) (His6-CRBN/DDB1; Protein CRBN): 7.42 M
- IC50 (His6-CRBN/DDB1; Protein CRBN, protein […]): 3.8e-08 M
- Kd (His6-CRBN/DDB1; [10]): 2.66e-08 M and 2.7e-08 M
- pKD (M) (His6-CRBN/DDB1; [10]): 7.57 M
Molecule: Cc1sc2c(c1C)C(c1ccc(Cl)cc1)=N[C@@H](CC(=O)NCCCCCCCCC(=O)N[C@@H](Cc1ccccc1)C(=O)N[C@H]1CC(=O)NC1=O)c1nnc(C)n1-2 [JQ1-FcN]

- IC50 (His6-CRBN/DDB1; [5]): 1.12e-05 M
Molecule: C[C@H](NC(=O)CNC(=O)CNC(=O)CN)C(=O)N[C@@H]1CC(=O)NC1=O [GGGAepicN] (H-GGGA-X1)

- DC50 [3, 11]: ≤ 2 nM
- Kd (His6-CRBN/DDB1; [9]): ≤ 4e-09 M
Molecule: [2H]C1([2H])CC([2H])(N2Cc3cc(CNC(=O)Nc4ccc(C)c(Cl)c4)ccc3C2=O)C(=O)NC1=O (racemic) [rac-CC885-d3]

- half-life at 100 µM [2]: 4.2 to 4.3 h
Molecule: Nc1cccc2c1CN(C1CCC(=O)NC1=O)C2=O (stereo not drawn) [lenalidomide]

- half-life at 100 µM [2]: 24 to 25 h
Molecule: [2H]C1([2H])CC([2H])(N2Cc3c(N)cccc3C2=O)C(=O)NC1=O (racemic) [rac-Len-d3]

- pIC50 (M) (His6-CRBN/DDB1; Protein CRBN): 8.29 M
Molecule: Cc1ccc(NC(=O)NCc2ccc3c(c2)CN(C2CCC(=O)NC2=O)C3=O)cc1Cl (racemic) [rac-CC-885]

- Kd (His6-CRBN/DDB1; [9]): ≤ 4e-09 M
Molecule: Cc1ccc(NC(=O)NCc2ccc3c(c2)CN(C2CCC(=O)NC2=O)C3=O)cc1Cl (racemic) [rac-CC885, CC885, reference compound]

- IC50 (His6-CRBN/DDB1; [5]): 1.53e-05 M
- IC50 (His6-CRBN/DDB1; [8]): 1.53e-05 M
- Kd (His6-CRBN/DDB1; [6]): 1.07e-05 M
- Kd (His6-CRBN/DDB1; [7]): 1.07e-05 M
- Kd (His6-CRBN/DDB1; [9]): 1.07e-05 M
Molecule: CN1C(=O)CCC(N2Cc3c(N)cccc3C2=O)C1=O (stereo not drawn) [Me-Len, reference compound]

- Kd (His6-CRBN/DDB1 complex [4]): 7850 nM
B3: GGGAepicN (peptide)
peptide: GGGA[epicN]
notes: pentapeptide; the C-terminal N is cyclised to the aspartimide and is the epimer of that in GGGAcN; The sheet prints no Fmoc for this peptide; also called pentapeptide bearing AepicN; source: synthetic peptide
